The record followed here is US12162890B2 (Novartis AG, priority 2015, dated 2024).

The assay deals with HEK293 cells with stable expression of the GRIN1 gene and tetracycline-inducible expression of the GRIN2B gene (NMDA receptor, NR2B) (Homo sapiens, UniProt Q13224). As to the kind of experiment: Fluo-8 Ca2+ flux assay: reversal of Ro 25-6981-mediated suppression of the Ca2+ response to co-agonist (glutamate/glycine). Also: test concentration or dose not given here. The class given is cell-based. To be noted: reversal of the Ro 25-6981 suppression of the Ca2+ response to co-agonist (glutamate/glycine). On the technique in general: Calcium assays in cells follow changes in intracellular calcium, usually with a dye or a luminescent sensor.
Sequence of HEK293 cells with stable expression of the GRIN1 gene and tetracycline-inducible expression of the GRIN2B gene (NMDA receptor, NR2B) (Q13224 27-1484, other chains not shown): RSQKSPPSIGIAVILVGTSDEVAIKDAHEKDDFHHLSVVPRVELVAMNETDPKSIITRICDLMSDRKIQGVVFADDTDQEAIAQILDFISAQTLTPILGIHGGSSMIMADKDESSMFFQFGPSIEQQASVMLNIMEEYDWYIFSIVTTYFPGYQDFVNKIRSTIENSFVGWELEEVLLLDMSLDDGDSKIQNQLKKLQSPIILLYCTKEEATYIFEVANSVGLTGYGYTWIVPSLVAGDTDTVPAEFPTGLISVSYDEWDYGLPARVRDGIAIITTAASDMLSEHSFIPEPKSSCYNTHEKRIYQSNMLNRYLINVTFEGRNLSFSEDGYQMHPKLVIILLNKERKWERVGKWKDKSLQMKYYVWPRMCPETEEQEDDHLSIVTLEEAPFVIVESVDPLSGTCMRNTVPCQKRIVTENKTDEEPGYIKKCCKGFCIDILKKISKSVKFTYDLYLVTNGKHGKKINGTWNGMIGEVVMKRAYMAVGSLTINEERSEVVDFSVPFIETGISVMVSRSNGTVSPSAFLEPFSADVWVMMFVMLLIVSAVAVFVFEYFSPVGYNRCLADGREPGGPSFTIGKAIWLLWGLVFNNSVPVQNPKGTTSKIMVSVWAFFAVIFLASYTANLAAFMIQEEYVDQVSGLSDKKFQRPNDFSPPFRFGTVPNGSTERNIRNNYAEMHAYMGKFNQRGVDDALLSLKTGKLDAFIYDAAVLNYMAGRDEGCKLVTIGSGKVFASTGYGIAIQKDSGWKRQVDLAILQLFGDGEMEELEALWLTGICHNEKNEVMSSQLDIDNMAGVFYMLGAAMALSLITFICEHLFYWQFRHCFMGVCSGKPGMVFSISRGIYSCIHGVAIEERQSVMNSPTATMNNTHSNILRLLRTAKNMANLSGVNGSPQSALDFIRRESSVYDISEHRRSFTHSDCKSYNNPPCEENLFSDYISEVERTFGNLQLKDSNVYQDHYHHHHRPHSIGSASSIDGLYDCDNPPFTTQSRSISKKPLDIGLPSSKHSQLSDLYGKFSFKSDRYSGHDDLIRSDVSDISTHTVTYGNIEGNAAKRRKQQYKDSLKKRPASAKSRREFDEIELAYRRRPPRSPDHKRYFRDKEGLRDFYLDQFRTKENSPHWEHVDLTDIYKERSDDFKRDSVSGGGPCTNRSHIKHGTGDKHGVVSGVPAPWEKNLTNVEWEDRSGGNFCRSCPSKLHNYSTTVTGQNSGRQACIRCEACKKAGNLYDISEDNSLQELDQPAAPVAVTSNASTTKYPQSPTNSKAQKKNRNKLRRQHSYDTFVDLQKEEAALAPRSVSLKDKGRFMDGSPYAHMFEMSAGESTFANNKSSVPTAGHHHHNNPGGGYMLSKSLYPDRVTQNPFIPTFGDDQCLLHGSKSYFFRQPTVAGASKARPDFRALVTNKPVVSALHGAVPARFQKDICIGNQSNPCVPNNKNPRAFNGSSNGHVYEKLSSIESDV
For the molecule `CN(C)Cc1cn(CC(=O)N2CCC(F)C2)c(=O)c2c(-c3ccc(Cl)c(Cl)c3)csc12` (stereo not drawn) [Example 123, 3-(3,4-dichlorophenyl)-7-((dimethylamino)methyl)-5-(2-(3-fluoropyrrolidin-1-yl)-2-oxoethyl)thieno[3,2-c]pyridin-4(5H)-one], the “Response Recovered (%)” value is 70%.
With `O=C(Cn1cc(CN2CCC2)c2scc(-c3ccc(F)c(Cl)c3)c2c1=O)N1CCC(F)C1` (stereo not drawn) [Example 124, 7-(azetidin-1-ylmethyl)-3-(3-chloro-4-fluorophenyl)-5-(2-(3-fluoropyrrolidin-1-yl)-2-oxoethyl)thieno[3,2-c]pyridin-4(5H)-one], the “Response Recovered (%)” value came out at 76%.
`O=C(Cn1cc(CN2CC(F)C2)c2scc(-c3ccc(F)c(Cl)c3)c2c1=O)N1CCC(F)C1` (stereo not drawn) [Example 125, 3-(3-chloro-4-fluorophenyl)-7-((3-fluoroazetidin-1-yl)methyl)-5-(2-(3-fluoropyrrolidin-1-yl)-2-oxoethyl)thieno[3,2-c]pyridin-4(5H)-one]: the “Response Recovered (%)” value was 53%.
For `COCc1cn(CC(=O)N2CCC(F)C2)c(=O)c2c(-c3ccc(F)c(C(F)(F)F)c3)csc12` (stereo not drawn) [Example 126, 3-(4-fluoro-3-(trifluoromethyl)phenyl)-5-(2-(3-fluoropyrrolidin-1-yl)-2-oxoethyl)-7-(methoxymethyl)thieno[3,2-c]pyridin-4(5H)-one], the “Response Recovered (%)” value worked out at 46%.
In the case of `CCOCc1cn(CC(=O)N2CCC(F)C2)c(=O)c2c(-c3ccc(F)c(C(F)(F)F)c3)csc12` (stereo not drawn) [Example 127, 7-(ethoxymethyl)-3-(4-fluoro-3-(trifluoromethyl)phenyl)-5-(2-(3-fluoropyrrolidin-1-yl)-2-oxoethyl)thieno[3,2-c]pyridin-4(5H)-one], the “Response Recovered (%)” value is listed as 48%.
As for `COCc1cn(CC(=O)N2CCC(F)C2)c(=O)c2c(-c3ccc(F)c(Cl)c3)csc12` (stereo not drawn) [Example 128, 3-(3-chloro-4-fluorophenyl)-5-(2-(3-fluoropyrrolidin-1-yl)-2-oxoethyl)-7-(methoxymethyl) thieno[3,2-c]pyridin-4(5H)-one], the “Response Recovered (%)” value is on record as 23%.
Turning to `O=C(Cn1cc(CO)c2scc(-c3ccc(F)c(Cl)c3)c2c1=O)N1CCC(F)C1` (stereo not drawn) [Example 129, 3-(3-chloro-4-fluorophenyl)-5-(2-(3-fluoropyrrolidin-1-yl)-2-oxoethyl)-7-(hydroxymethyl) thieno[3,2-c]pyridin-4(5H)-one], the “Response Recovered (%)” value was found to be 39%.
For `CCOCc1cn(CC(=O)N2CCC(F)C2)c(=O)c2c(-c3ccc(F)c(Cl)c3)csc12` (stereo not drawn) [Example 130, 3-(3-chloro-4-fluorophenyl)-7-(ethoxymethyl)-5-(2-(3-fluoropyrrolidin-1-yl)-2-oxoethyl)thieno[3,2-c]pyridin-4(5H)-one], the “Response Recovered (%)” value is 42%.
Take `O=C(Cn1cc(CO)c2scc(-c3ccc(Cl)c(Cl)c3)c2c1=O)N1CCC(F)C1` (stereo not drawn) [Example 131, 3-(3,4-dichlorophenyl)-5-(2-(3-fluoropyrrolidin-1-yl)-2-oxoethyl)-7-(hydroxymethyl) thieno[3,2-c]pyridin-4(5H)-one]: the “Response Recovered (%)” value was found to be 72%.
Regarding `COCc1cn(CC(=O)N2CCC(F)C2)c(=O)c2c(-c3ccc(Cl)c(Cl)c3)csc12` (stereo not drawn) [Example 132, 3-(3,4-dichlorophenyl)-5-(2-(3-fluoropyrrolidin-1-yl)-2-oxoethyl)-7-(methoxymethyl) thieno[3,2-c]pyridin-4(5H)-one], the “Response Recovered (%)” value amounted to 20%.
Take `CC(C)(O)c1cn(CC(=O)N2CCC(F)C2)c(=O)c2c(-c3ccc(F)c(C(F)(F)F)c3)csc12` (stereo not drawn) [Example 133, 3-(4-fluoro-3-(trifluoromethyl)phenyl)-5-(2-(3-fluoropyrrolidin-1-yl)-2-oxoethyl)-7-(2-hydroxypropan-2-yl)thieno[3,2-c]pyridin-4(5H)-one]: the “Response Recovered (%)” value is 9.9%.
The value for `O=C(Cn1cc(/C=N/O)c2scc(-c3ccc(F)c(C(F)(F)F)c3)c2c1=O)N1CCC(F)C1` (stereo not drawn) [Example 134, (E)-3-(4-fluoro-3-(trifluoromethyl)phenyl)-5-(2-(3-fluoropyrrolidin-1-yl)-2-oxoethyl)-4-oxo-4,5-dihydrothieno[3,2-c]pyridine-7-carbaldehyde oxime] was 130%; that for `C/C(=N/O)c1cn(CC(=O)N2CCC(F)C2)c(=O)c2c(-c3ccc(F)c(C(F)(F)F)c3)csc12` (stereo not drawn) [Example 135, (Z)-3-(4-fluoro-3-(trifluoromethyl)phenyl)-5-(2-(3-fluoropyrrolidin-1-yl)-2-oxoethyl)-7-(1-(hydroxyimino)ethyl)thieno[3,2-c]pyridin-4(5H)-one] was 11%; that for `CC1(F)CN(C(=O)Cn2ccc3scc(-c4cnc(C#N)c(Cl)c4)c3c2=O)C1` [Example 136, 3-chloro-5-(5-(2-(3-fluoro-3-methylazetidin-1-yl)-2-oxoethyl)-4-oxo-4,5-dihydrothieno[3,2-c]pyridin-3-yl)picolinonitrile] was 17%.
`CCC1(F)CN(C(=O)Cn2ccc3scc(-c4cnc(C#N)c(Cl)c4)c3c2=O)C1` [Example 137, 3-chloro-5-(5-(2-(3-ethyl-3-fluoroazetidin-1-yl)-2-oxoethyl)-4-oxo-4,5-dihydrothieno[3,2-c]pyridin-3-yl)picolinonitrile]: the “Response Recovered (%)” value amounted to 22%.
Consider `N#Cc1ncc(-c2csc3ccn(CC(=O)N4CC(F)(CF)C4)c(=O)c23)cc1Cl` [Example 138, 3-chloro-5-(5-(2-(3-fluoro-3-(fluoromethyl)azetidin-1-yl)-2-oxoethyl)-4-oxo-4,5-dihydrothieno[3,2-c]pyridin-3-yl)picolinonitrile], for which the “Response Recovered (%)” value turned out to be 10%.
Regarding `CC1(F)CN(C(=O)Cn2ccc3scc(-c4cnc(F)c(F)c4)c3c2=O)C1` [Example 139, 3-(5,6-difluoropyridin-3-yl)-5-(2-(3-fluoro-3-methylazetidin-1-yl)-2-oxoethyl)thieno[3,2-c]pyridin-4(5H)-one], the “Response Recovered (%)” value is 11%.
With `CC1(F)CN(C(=O)Cn2ccc3scc(-c4cnc(Cl)nc4)c3c2=O)C1` [Example 140, 3-(2-chloropyrimidin-5-yl)-5-(2-(3-fluoro-3-methylazetidin-1-yl)-2-oxoethyl)thieno[3,2-c]pyridin-4(5H)-one], the “Response Recovered (%)” value turned out to be 3.1%.
Consider `CCC1(F)CN(C(=O)Cn2ccc3scc(-c4cnc(Cl)nc4)c3c2=O)C1` [Example 141, 3-(2-chloropyrimidin-5-yl)-5-(2-(3-ethyl-3-fluoroazetidin-1-yl)-2-oxoethyl)thieno[3,2-c]pyridin-4(5H)-one], for which the “Response Recovered (%)” value was −4.1%.
The value for `O=C(Cn1ccc2scc(-c3cnc(Cl)nc3)c2c1=O)N1CC(F)(CF)C1` [Example 142, 3-(2-chloropyrimidin-5-yl)-5-(2-(3-fluoro-3-(fluoromethyl)azetidin-1-yl)-2-oxoethyl)thieno[3,2-c]pyridin-4(5H)-one] was −4.2%; that for `CCC1(F)CN(C(=O)Cn2ccc3scc(-c4cnc(F)c(F)c4)c3c2=O)C1` [Example 143, 3-(5,6-difluoropyridin-3-yl)-5-(2-(3-ethyl-3-fluoroazetidin-1-yl)-2-oxoethyl)thieno[3,2-c]pyridin-4(5H)-one] was 15%; that for `O=C(Cn1ccc2scc(-c3cnc(F)c(F)c3)c2c1=O)N1CC(F)(CF)C1` [Example 144, 3-(5,6-difluoropyridin-3-yl)-5-(2-(3-fluoro-3-(fluoromethyl)azetidin-1-yl)-2-oxoethyl)thieno[3,2-c]pyridin-4(5H)-one] was 9.8%.
The same measure for `CC1(F)CN(C(=O)Cn2ccc3scc(-c4cncc(Cl)n4)c3c2=O)C1` [Example 145, 3-(6-chloropyrazin-2-yl)-5-(2-(3-fluoro-3-methylazetidin-1-yl)-2-oxoethyl)thieno[3,2-c]pyridin-4(5H)-one]: 3%.
Consider `O=C(Cn1ccc2scc(-c3cncc(Cl)n3)c2c1=O)N1CC(F)(CF)C1` [Example 146, 3-(6-chloropyrazin-2-yl)-5-(2-(3-fluoro-3-(fluoromethyl)azetidin-1-yl)-2-oxoethyl)thieno[3,2-c]pyridin-4(5H)-one], for which the “Response Recovered (%)” value is listed as −3.8%.
For the molecule `CCC1(F)CN(C(=O)Cn2ccc3scc(-c4cncc(Cl)n4)c3c2=O)C1` [Example 147, 3-(6-chloropyrazin-2-yl)-5-(2-(3-ethyl-3-fluoroazetidin-1-yl)-2-oxoethyl)thieno[3,2-c]pyridin-4(5H)-one], the “Response Recovered (%)” value was −0.39%.
In the case of `O=C(Cn1cnc2[nH]cc(-c3ccc(Cl)c(C(F)(F)F)c3)c2c1=O)N1CCCC1` [Example 148, 5-(4-chloro-3-(trifluoromethyl)phenyl)-3-(2-oxo-2-(pyrrolidin-1-yl)ethyl)-3H-pyrrolo[2,3-d]pyrimidin-4(7H)-one], the “Response Recovered (%)” value is listed as 66%.
Regarding `O=C(Cn1cnc2c(c(-c3ccc(Cl)c(C(F)(F)F)c3)cn2CCF)c1=O)N1CCCC1` [Example 149, 5-(4-chloro-3-(trifluoromethyl)phenyl)-7-(2-fluoroethyl)-3-(2-oxo-2-(pyrrolidin-1-yl)ethyl)-3H-pyrrolo[2,3-d]pyrimidin-4(7H)-one], the “Response Recovered (%)” value is 64%.
The same measure for `O=C(Cn1cnc2[nH]cc(-c3ccc(Cl)cc3)c2c1=O)N1CCCC1` [Example 150, 5-(4-chlorophenyl)-3-(2-oxo-2-(pyrrolidin-1-yl)ethyl)-3H-pyrrolo[2,3-d]pyrimidin-4(7H)-one]: 31%; for `Cn1cc(-c2ccc(Cl)cc2)c2c(=O)n(CC(=O)N3CCCC3)cnc21` [Example 151, 5-(4-chlorophenyl)-7-methyl-3-(2-oxo-2-(pyrrolidin-1-yl)ethyl)-3H-pyrrolo[2,3-d]pyrimidin-4(7H)-one]: 17%.
As for `O=C(Cn1cnc2[nH]cc(-c3ccc(Cl)cc3)c2c1=O)N1CCCC1C(F)(F)F` (stereo not drawn) [Example 152, 5-(4-chlorophenyl)-3-(2-oxo-2-(2-(trifluoromethyl)pyrrolidin-1-yl)ethyl)-3H-pyrrolo[2,3-d]pyrimidin-4(7H)-one], the “Response Recovered (%)” value is 10%.
